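Protocol summary: plate cells (96-well), add compound at 5 concentrations, incubate 48 h, interpolate endpoints linearly. Abbreviation: GI50, concentration required for 50% inhibition of growth. TGI marks complete inhibition of growth.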
Key:
Assay in all cases: NCI tumour cell line growth inhibition, 48 h
HCC-2998 colon = system: HCC-2998 colon
HOP-92 NSCLC = system: HOP-92 NSCLC
HS 578T breast = system: HS 578T breast
K-562 leukemia = system: K-562 leukemia
KM12 colon = system: KM12 colon
M14 melanoma = system: M14 melanoma
SF-268 CNS = system: SF-268 CNS
SNB-75 CNS = system: SNB-75 CNS
T-47D breast = system: T-47D breast
UACC-257 melanoma = system: UACC-257 melanoma

Row | Compound | GI50 (HCC-2998 colon) [µM] | TGI (HCC-2998 colon) [µM] | GI50 (HOP-92 NSCLC) [µM] | TGI (HOP-92 NSCLC) [µM] | GI50 (HS 578T breast) [µM] | TGI (HS 578T breast) [µM] | GI50 (K-562 leukemia) [µM] | TGI (K-562 leukemia) [µM] | GI50 (KM12 colon) [µM] | TGI (KM12 colon) [µM] | GI50 (M14 melanoma) [µM] | TGI (M14 melanoma) [µM] | GI50 (SF-268 CNS) [µM] | TGI (SF-268 CNS) [µM] | GI50 (SNB-75 CNS) [µM] | TGI (SNB-75 CNS) [µM] | GI50 (T-47D breast) [µM] | TGI (T-47D breast) [µM] | GI50 (UACC-257 melanoma) [µM] | TGI (UACC-257 melanoma) [µM]
1 | COc1cc(/C=C/C(=O)c2ccc(F)cc2)ccc1OCCCN1CCN(CC(=O)Nc2ccc(Cl)cc2C(=O)c2ccccc2Cl)CC1 | 16.6 | 40.1 | 1.38 | 10.3 | 7.01 | 46.3 | 3.6 | > 100 | 5.58 | 22.2 | 3.4 | 13.3 | 16.9 | > 100 | 6.05 | 34.1 | 21.4 | > 100 | 9.51 | 47.9
2 | Cc1[nH]c(=O)nc(Nc2ccc(Cl)cc2)c1C(=O)N1CCN(CCO)CC1 | > 100 | > 100 | 28.7 | 71.6 | 34.2 | > 100 | > 100 | > 100 | > 100 | > 100 | > 100 | > 100 | 65 | > 100 | 21.7 | 52.3 | 84.2 | > 100 | > 100 | > 100
3 | Cc1ccc(C(=O)NC2CCC2)cc1-c1ccc(C(=O)NCC2CC2)cc1 | > 25 | > 25 | > 21.3 | > 25 | > 25 | > 25 | > 25 | > 25 | > 25 | > 25 | > 25 | > 25 | > 25 | > 25 | > 25 | > 25 | 12.9 | > 25 | > 25 | > 25
4 | NCCN.O=C([O-])CN1CCOCC1.[OH-].[Pt+4] | > 100 | > 100 | > 100 | > 100 | > 100 | > 100 | – | – | > 100 | > 100 | > 100 | > 100 | > 100 | > 100 | > 100 | > 100 | > 100 | > 100 | > 100 | > 100
5 | Cc1nn(-c2ccc(Cl)cc2)c2nc3c(nc12)C(=O)C(=O)c1ccccc1-3 | 1.74 | 3.79 | 0.18 | 30.8 | 2.08 | 5.5 | – | – | 3.76 | 15.6 | 1.89 | 4.1 | 12.4 | > 100 | 1.66 | 4.3 | 12.1 | 29.9 | 3.24 | 11.9
6 | Cc1nn(-c2ccc([N+](=O)[O-])cc2)c2ncnc(N/N=C/c3ccccc3O)c12 | – | – | 0.806 | 4.63 | 1.43 | 8.27 | 0.448 | > 100 | 0.379 | > 100 | 0.299 | 2.2 | 0.313 | > 100 | 0.554 | 4.23 | 0.542 | 4.95 | 1.47 | 8.56
7 | C=C1c2ccoc2C[C@H]2[C@H]1CC[C@@]1(O)[C@@](C)(C(=O)OC)CCC[C@]21C | 29.4 | 71 | 14.6 | 57.1 | 71.9 | > 100 | – | – | 25.6 | 89.7 | 29.3 | 82.6 | 22.7 | 73.5 | > 100 | > 100 | 27.3 | > 100 | 35.7 | > 100
8 | Nc1c(C(=O)c2cccc(C#CCO)c2)cnn1-c1ccc(F)cc1 | > 25 | > 25 | > 13.2 | > 25 | 5.18 | > 25 | > 25 | > 25 | > 25 | > 25 | > 25 | > 25 | > 25 | > 25 | > 25 | > 25 | > 25 | > 25 | > 25 | > 25
9 | COC(=O)c1cc2ccccc2c2c3c(ccc12)OCO3 | 562 | > 1000 | 17.4 | 73 | 36.4 | 247 | 658 | > 1000 | 515 | > 1000 | 474 | > 1000 | 50.6 | 371 | 12.2 | 48.1 | 44.2 | > 1000 | 199 | > 1000
10 | Nc1c(C(=O)c2cccc(-c3cccnc3)c2)cnn1-c1ccc(F)cc1F | 9.43 | > 25 | 1.94 | 17.4 | 7.44 | > 25 | 0.962 | 24.5 | 1.21 | > 25 | 2.71 | > 25 | 10.8 | > 25 | 5.33 | > 25 | 1.57 | > 25 | 6.28 | > 25
11 | C#CCNCCN1C(=O)c2ccc3c4c(ccc(c24)C1=O)C(=O)N(CCNCC#C)C3=O | 2.49 | 10 | 7.39 | 22.9 | 8.35 | 29.2 | 5.25 | 50 | 3.35 | 11.4 | 5.52 | 12.6 | 3.78 | 24.2 | 5.95 | 14.5 | 4.16 | 14.8 | 3.08 | 9.65
12 | COc1cc(OC)c(C(=O)/C=C/c2cccc(C#N)c2)c(OC)c1 | 2.17 | 7.34 | 0.701 | 3.26 | 1.59 | 44.9 | 0.384 | > 50 | 1.64 | 5.97 | 0.978 | 4.68 | 1.69 | 7.9 | 1.31 | 5.62 | 1.17 | 5.53 | 2.1 | 8.69
13 | Cc1cn2c(/C=C3/C(=O)Nc4ccc(O)cc43)c(C)nc2s1 | 1.76 | 5.01 | 0.373 | 8.87 | 2.68 | 18.2 | 0.362 | > 61.8 | 1.8 | 24.3 | 2.29 | > 39.1 | 3.42 | 56.8 | 4.61 | > 100 | 2.64 | 25.5 | 7.85 | > 47.1
14 | O=C1NOC(c2ccc(O)cc2)(c2ccc(O)cc2)c2ccccc21 | > 100 | > 100 | > 100 | > 100 | > 100 | > 100 | > 100 | > 100 | > 100 | > 100 | > 100 | > 100 | > 100 | > 100 | > 100 | > 100 | > 100 | > 100 | > 100 | > 100
15 | O=C1C(c2cnc3ccccc3n2)=C(O)c2ccccc21 | – | > 100 | – | > 100 | – | > 100 | – | > 100 | – | > 41.1 | – | > 100 | – | > 100 | – | 79.9 | – | > 100 | – | > 95.9
16 | COC(=O)Nc1nc2ccc(Oc3cccc(NC(=O)Nc4cc(C(F)(F)F)ccc4F)c3)cc2[nH]1 | 13.2 | > 25 | 2.94 | > 22.2 | 7.47 | > 25 | 0.452 | > 25 | 7.57 | > 25 | 7.67 | > 25 | 18.5 | > 25 | 8.53 | > 25 | 8.64 | > 25 | > 23.7 | > 25
17 | C=C1CC[C@@H]2[C@](C)(COC(C)=O)[C@H](OC(C)=O)CC[C@@]2(C)[C@@H]1CC(Nc1ccc(S(=O)(=O)Nc2ccc(Cl)nn2)cc1)C1=CCOC1=O (stereo partly drawn) | 1.84 | 3.86 | 2.7 | 7.89 | 6.17 | > 100 | 0.526 | 5.19 | 1.7 | 3.49 | 1.45 | 3.41 | 1.8 | 3.67 | 1.44 | 5.9 | 1.51 | 4.25 | 1.67 | 3.89
18 | Cn1cccc1-c1cc(-c2ccc(Br)cc2)[nH]c(=O)c1C#N | > 100 | > 100 | 27.8 | > 100 | > 100 | > 100 | > 100 | > 100 | > 100 | > 100 | – | – | > 100 | > 100 | 25.4 | > 100 | > 100 | > 100 | > 100 | > 100
19 | Cc1nn(C)c(COc2ccc(N3CCN(S(=O)(=O)N(C)C)CC3)cc2)c1-c1cccc2c(CCCOc3cccc4ccccc34)c(C(=O)O)n(CCN3CCOCC3)c12 | 2.81 | 9.34 | 2.01 | 6.56 | 2.95 | 14.7 | 3.84 | > 100 | 3.5 | 13 | 2.28 | 5.32 | 3.66 | 15.8 | 2.11 | 10.5 | 2.4 | 9.38 | 2.91 | 9.52
20 | O=C(Nc1ccc(Oc2cccc(F)c2)c(Cl)c1)c1cnccn1 | 6.04 | > 50 | 1.44 | > 50 | 1.19 | > 50 | 0.242 | > 50 | 0.357 | > 50 | 0.78 | > 50 | 7.81 | > 50 | 1.06 | 4.22 | 1.33 | > 50 | 4.53 | > 50
21 | CCc1ccc2c(c1)C(=O)c1c-2n(CCCN=[N+]=[N-])c(=O)c2cc(OC)c(OC)cc12 | > 100 | > 100 | 23.8 | 94.8 | 89.1 | > 100 | > 100 | > 100 | > 100 | > 100 | > 100 | > 100 | 60.7 | > 100 | > 100 | > 100 | > 100 | > 100 | > 100 | > 100
22 | O=[N+]([O-])c1ccc(N2CCC(CCCC3CCN(c4ccc([N+](=O)[O-])cc4[N+](=O)[O-])CC3)CC2)c([N+](=O)[O-])c1 | – | – | – | 26.4 | – | > 100 | – | 55.9 | – | 30.7 | – | 26.7 | – | 42.6 | – | 32.8 | – | 29.2 | – | 28.9
23 | Nc1ncnc2c1c(-c1ccc(Oc3ccccc3)cc1)nn2C[C@@H]1SSC[C@H]1O | 4.34 | 23.5 | 1.75 | 5.87 | 2.96 | 11.2 | 0.501 | 15.5 | 0.208 | 16.7 | – | – | 0.199 | 15.1 | 4.25 | > 33.4 | 1.09 | 10.3 | 1.44 | 7.56
24 | CN(C)c1ccc(C(=NO)c2ccc(N(C)C)cc2)cc1 | 8.06 | > 100 | 15.2 | > 100 | 7.39 | > 100 | 0.418 | > 100 | 1.28 | > 100 | – | – | 4.71 | > 100 | 3.33 | 53.2 | 5.59 | > 100 | 5.12 | > 100
25 | COC(=O)C1=C(C)NC(C)=C(C(=O)OCC(C)C)C1c1ccccc1[N+](=O)[O-] (stereo not drawn) | 6.18 | 22.4 | 4.57 | 19.8 | 13.9 | > 100 | – | – | 2.94 | > 100 | 2.9 | 8.21 | 7.8 | 22.7 | 2.44 | 15.2 | 3.9 | 16.4 | 3.71 | 12.5

From PubChem BioAssay (NCI)
